The values that follow come from article PMC12735718, “Novel Adamantane–Sclareol Hybrids Exploit ROS Vulnerability to Overcome Multidrug-Resistance in Glioblastoma Cells” (Molecules, 2025).

In data set [1] the test system is TrxR1 protein in U87 cells. Description: TrxR1 protein expression by flow cytometry, U87. The class given is cell-based, human. Conditions: U87, 4 µM, 48 h. Here is the method: Flow cytometry was used to assess TrxR1 and ASK1 protein expression in the U87 and U87-TxR cell lines. Cells were seeded and allowed to attach overnight before exposure to compounds 2 and 5 at final concentrations of 2 μM and 4 μM. After 48 h treatment, cells were collected by trypsinization, rinsed with PBS, and subsequently fixed in 4% PFA for 10 min at room temperature. For permeabilization, ice-cold absolute methanol was added, and the samples were maintained at −20 °C overnight. Following this step, cells were washed in PBS and incubated for 1 h in 0.5% BSA/PBS to block nonspecific binding. Pelleted cells were then resuspended in primary antibodies diluted in 0.5% BSA/PBS [(ASK1, 1:200 (ab45178, Abcam, Cambridge, UK); TrxR1, 1:500 (ab124954, Abcam, Cambridge, UK)] and incubated overnight at +4 °C. Cells were then washed in PBS and incubated for 1 h at room temperature in the dark with fluorescently labeled anti-rabbit IgG secondary antibody (Alexa Fluor 488, ab150097, Abcam, Cambridge, UK), diluted 1:1000 in 0.5% BSA/PBS. Following incubation, samples were washed, resuspended in cold PBS, and analyzed by flow cytometry. A minimum of 10,000 events per sample were acquired, and fluorescence was detected in a green fluorescence channel (525 nm). Data acquisition and processing were performed using CytExpert software (version 2.4.0.28; Beckman Coulter, Indianapolis, IN, USA).
Background: Flow cytometry measures light scatter and fluorescence of single cells or particles in a stream.

In data set [2] the test system is subcutaneous xenografts of U87 cells. The data set is described as follows: Preliminary efficacy study, subcutaneous U87 xenografts. The data set is classed as in vivo. Conditions: 7 mg/kg, administered twice i.p. Here is the method:
(§1) Male immunodeficient mice (Rag1^−/−), aged 4–8 weeks, were used for xenograft studies. A total of 1 × 10^6 U87 cells were injected subcutaneously into the rear axillary region to establish solid tumors. […] Maximum tolerated dose (MTD) testing for 5 was performed in 6- to 8-week-old male Rag1 mice using two animals per dose group. Compound 5 was administered i.p. at doses of 7 mg/kg, 12.5 mg/kg, 25 mg/kg, 50 mg/kg, 100 mg/kg, and 200 mg/kg. The carrier consisted of 10% (v/v) DMSO with 5% (v/v) Tween-80 and was diluted in 0.9% (w/v) NaCl. Animals were monitored for weight loss, changes in feeding or neurological signs, and any morbidity to identify the highest non-toxic dose. For efficacy studies, Rag1 mice were inoculated subcutaneously with 1 × 10^6 cells (mean starting weight ≈ 20 g); animals were then randomized into treatment groups. The compound 5 group (n = 5) received 7 mg/kg i.p. (two injections during the study period). Comparator groups included carrier control (n = 5). Compound 5 was formulated in the vehicle described above. The study was terminated when tumors in untreated mice reached approximately 11% of body weight. At termination, animals were euthanized and tumors were excised. Tumor volumes and body weights were recorded throughout the experiment and used to assess efficacy and tolerability.

Data set [3] can be described thus: Maximum tolerated dose testing. The settings on record: Rag1-/- (immunodeficient), mouse, in vivo, ip, male Rag1 mice; read-out: maximal tolerated dose (MTD). Here is the method: as §1

Turning to `CC1(C)CCC[C@]2(C)[C@@H](CC[C@@](C)(O)/C=C/c3ccc(CNCCCCCCCCNCC45CC6CC(CC(C6)C4)C5)s3)[C@](C)(O)CC[C@@H]12` [Compound 2], in data set [1], the TrxR1 levels entry is on record as “slight increase”.

In the case of `CC1(C)CCC[C@]2(C)[C@@H](CC[C@@](C)(O)/C=C/c3ccc(CNCCCCCCCCNCC45CC6CC(CC(C6)C4)C5)o3)[C@](C)(O)CC[C@@H]12` [Compound 5], the Body weight result in data set [2] was “not adversely affected”. Besides, the tumor growth entry in data set [2] (over 12 days) was “strongly inhibits tumor growth”. For the same molecule, the maximal tolerated dose (MTD) (as a rule, the highest dose tested that stayed within the study's limit of toxicity) in data set [3] worked out at 25 mg/kg.
